Here are results for ten molecules from patent publication US20170166598A1, “HETEROARYL COMPOUNDS FOR KINASE INHIBITION” (ARIAD PHARMACEUTICALS, INC., priority 2014, published 2017).

SMILES strings stand for the structures.

What all share (format): cell-based
Experiment [1] concerns the target T1, human EGFR exon 20 insertion ASV (V769_D770insASV) (Homo sapiens, UniProt P00533, INS769ASV).
T1 construct: expressed in transfected cells; host or cells: Ba/F3 (murine pro-B) cells transduced with lentivirus from pLVX-IRES puro
Briefly: Ba/F3-EGFR-Exon20-ASV cell anti-proliferative assay (CellTiter 96 MTS, 72 h). The note with it: Ba/F3-EGFR-Exon20-ASV cells. The method, then: (§1) An expression vector, pLVX-IRES puro (Clontech) coding for human EGFR exon 20 insertions NPG (H773_V774insNPG) or ASV (V769_D770insASV), was transfected into HEK293 cells by the Trans-Lentiviral ORF Packaging System (Thermo Scientific), to produce virus encoding EGFR exon 20 insertions. Ba/F3 (DSMZ) cells maintained in RPMI 1640 medium supplemented with 10% fetal bovine serum, 200 μM L-glutamine/l 200 μg/mL penicillin/200 μg/mL streptomycin (Life Technology) and 10 ng/mL IL-3 (R&D system), were infected by EGFR Exon20 virus and subsequently selected by puromycin (Life Technology) selection and IL-3 depletion. […] The anti-proliferative activity of compounds were determined as follows: BaF3-EGFR-Exon20 cells (NPG or ASV) seeded in 96 well plates (2500 cells/well) were treated with test compound (dissolved in DMSO) at a series of concentrations (4-fold dilution, top concentration: 10,000 nM). The plates were incubated for 72 h in a 37° C. incubator with 5% CO2, and the number of viable cells in each well were measured indirectly by CellTiter 96® Aqueous One Solution Cell Proliferation Assay (Promega) This assay is a colorimetric method for determining the number of viable cells through measurement of their metabolic activity by detection of enzymatic conversion of tetrazolium salts into blue formazan derivatives. Reagent (20 μL) was added into each well, and the plates were returned to the incubator for 2 h. The absorbance in each well was then measured at 490 nm using an Envision plate reader (Perkin Elmer).

Experiment [2] has as its target T2, human EGFR exon 20 insertion NPG (H773_V774insNPG) (Homo sapiens, UniProt P00533, INS772GNP).
T2 construct: expressed in transfected cells; host or cells: Ba/F3 (murine pro-B) cells transduced with lentivirus from pLVX-IRES puro
Briefly: Ba/F3-EGFR-Exon20-NPG cell anti-proliferative assay (CellTiter 96 MTS, 72 h). Conditions: Ba/F3-EGFR-Exon20-NPG cells. The method, then: as §1

For experiment [3], the target named is T3, human EGFR E746-A750 deletion and T790M Mutation (Homo sapiens, UniProt P00533, DEL746-750/T790M).
T3 construct: expressed in transfected cells; host or cells: Ba/F3 (murine pro-B) cells transduced with lentivirus from pLVX-IRES puro
T3 sequence (P00533 with tags, fused parts or gaps DEL746-750/T790M): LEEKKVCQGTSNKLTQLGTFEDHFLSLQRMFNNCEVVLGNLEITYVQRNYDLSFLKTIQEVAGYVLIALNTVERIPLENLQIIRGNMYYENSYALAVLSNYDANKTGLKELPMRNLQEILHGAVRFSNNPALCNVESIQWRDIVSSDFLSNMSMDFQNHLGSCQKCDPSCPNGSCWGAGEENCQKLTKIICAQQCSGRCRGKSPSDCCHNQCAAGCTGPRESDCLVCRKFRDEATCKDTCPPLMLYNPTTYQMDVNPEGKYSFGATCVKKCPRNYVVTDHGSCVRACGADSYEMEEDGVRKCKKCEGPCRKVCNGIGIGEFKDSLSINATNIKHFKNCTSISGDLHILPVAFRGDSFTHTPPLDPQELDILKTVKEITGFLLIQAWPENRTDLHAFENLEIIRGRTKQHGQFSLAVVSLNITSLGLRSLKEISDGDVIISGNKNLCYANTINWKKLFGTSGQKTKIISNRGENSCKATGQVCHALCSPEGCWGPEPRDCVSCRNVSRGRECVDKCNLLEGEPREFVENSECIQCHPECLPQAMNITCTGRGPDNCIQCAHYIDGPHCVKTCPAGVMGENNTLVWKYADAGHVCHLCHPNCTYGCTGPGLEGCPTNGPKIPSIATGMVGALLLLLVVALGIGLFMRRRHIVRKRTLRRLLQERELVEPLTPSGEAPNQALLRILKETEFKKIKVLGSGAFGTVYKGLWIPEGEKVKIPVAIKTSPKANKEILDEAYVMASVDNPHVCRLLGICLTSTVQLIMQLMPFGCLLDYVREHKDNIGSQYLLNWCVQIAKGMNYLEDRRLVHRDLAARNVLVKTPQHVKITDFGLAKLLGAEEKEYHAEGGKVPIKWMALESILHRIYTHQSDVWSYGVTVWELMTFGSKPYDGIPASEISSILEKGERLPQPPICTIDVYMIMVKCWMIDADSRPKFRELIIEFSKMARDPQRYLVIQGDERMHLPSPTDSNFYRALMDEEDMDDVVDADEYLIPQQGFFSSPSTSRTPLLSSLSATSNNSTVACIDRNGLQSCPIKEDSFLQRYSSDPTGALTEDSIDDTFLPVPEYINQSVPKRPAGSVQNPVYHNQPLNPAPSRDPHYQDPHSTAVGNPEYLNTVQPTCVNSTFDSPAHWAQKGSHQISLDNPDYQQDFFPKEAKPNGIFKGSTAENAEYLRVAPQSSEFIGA
Nature of the experiment: Ba/F3-EGFR-Del/T790M cell anti-proliferative assay (CellTiter 96 MTS, 72 h). The note with it: Ba/F3-EGFR-Del/T790M cells. The procedure: An expression vector, pLVX-IRES puro (Clontech) coding for human EGFR E746-A750 deletion and T790M Mutation, was transfected into HEK293 cells by the Trans-Lentiviral ORF Packaging System (Thermo Scientific), to produce virus encoding EGFR exon 19 deletion and T790M mutations. Ba/F3 (DSMZ) cells maintained in RPMI 1640 medium supplemented with 10% fetal bovine serum, 200 μM L-glutamine/200 μg/mL penicillin/200 μg/mL streptomycin (Life Technology) and 10 ng/mL IL-3 (R&D system), were infected by EGFR E746-A750 deletion and T790M Mutation virus and subsequently selected by puromycin (Life Technology) selection and IL-3 depletion. […] The anti-proliferative activity of compounds was determined as follows: BaF3-EGFR-Del/T790M cells seeded in 96 well plates (2500 cells/well) were treated with test compound (dissolved in DMSO) at a series of concentrations (4-fold dilution, top concentration: 10,000 nM). The plates were incubated for 72 h in a 37° C. incubator with 5% CO2, and the number of viable cells in each well were measured indirectly by CellTiter 96® Aqueous One Solution Cell Proliferation Assay (Promega; this assay is a colorimetric method for determining the number of viable cells through measurement of their metabolic activity by detection of enzymatic conversion of tetrazolium salts into blue formazan derivatives). Reagent (20 μL) was added into each well, and the plates were returned to the incubator for 2 h. The absorbance in each well was then measured at 490 nm using an Envision plate reader (Perkin Elmer).

The target of experiment [4] is T4, Her2 exon 20 YVMA insertion (A775_G776ins YVMA) (Homo sapiens, UniProt P04626, INS775YVMA).
T4 construct: expressed in transfected cells; host or cells: Ba/F3 (murine pro-B) cells transduced with lentivirus from pLVX-IRES puro
T4 sequence (P04626 with tags, fused parts or gaps INS775YVMA): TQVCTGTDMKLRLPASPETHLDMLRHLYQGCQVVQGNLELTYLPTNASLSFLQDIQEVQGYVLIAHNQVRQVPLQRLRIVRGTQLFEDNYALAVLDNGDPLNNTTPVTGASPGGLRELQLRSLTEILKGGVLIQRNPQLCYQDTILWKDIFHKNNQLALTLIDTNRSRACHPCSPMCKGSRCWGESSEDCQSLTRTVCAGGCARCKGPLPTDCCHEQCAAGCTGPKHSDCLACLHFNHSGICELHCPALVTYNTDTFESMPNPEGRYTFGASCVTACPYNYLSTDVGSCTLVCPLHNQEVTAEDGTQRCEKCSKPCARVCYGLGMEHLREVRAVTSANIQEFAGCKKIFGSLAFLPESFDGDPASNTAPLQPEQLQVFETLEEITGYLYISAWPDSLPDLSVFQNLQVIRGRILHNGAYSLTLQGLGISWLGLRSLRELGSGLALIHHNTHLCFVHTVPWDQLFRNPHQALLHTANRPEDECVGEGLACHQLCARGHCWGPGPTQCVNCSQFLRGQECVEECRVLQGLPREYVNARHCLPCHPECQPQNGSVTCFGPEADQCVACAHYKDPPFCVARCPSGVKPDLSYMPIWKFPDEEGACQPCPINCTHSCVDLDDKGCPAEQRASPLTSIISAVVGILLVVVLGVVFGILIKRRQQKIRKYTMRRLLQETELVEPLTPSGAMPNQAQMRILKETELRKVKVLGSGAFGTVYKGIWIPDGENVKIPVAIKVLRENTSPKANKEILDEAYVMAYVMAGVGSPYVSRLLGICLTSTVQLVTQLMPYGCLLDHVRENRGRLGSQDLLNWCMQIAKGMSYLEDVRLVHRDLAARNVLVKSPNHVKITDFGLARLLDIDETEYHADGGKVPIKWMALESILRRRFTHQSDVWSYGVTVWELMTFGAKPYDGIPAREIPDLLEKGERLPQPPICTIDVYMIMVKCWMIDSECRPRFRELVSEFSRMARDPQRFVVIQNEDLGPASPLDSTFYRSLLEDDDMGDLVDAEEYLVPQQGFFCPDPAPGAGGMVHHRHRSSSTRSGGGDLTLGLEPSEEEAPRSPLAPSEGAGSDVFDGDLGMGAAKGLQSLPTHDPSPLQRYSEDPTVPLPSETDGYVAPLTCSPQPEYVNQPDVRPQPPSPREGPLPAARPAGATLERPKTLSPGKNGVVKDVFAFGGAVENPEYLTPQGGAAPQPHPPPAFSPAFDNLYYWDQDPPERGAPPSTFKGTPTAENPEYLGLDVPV
Nature of the experiment: Ba/F3-Her2 Exon20 YVMA cell anti-proliferative assay (CellTiter 96 MTS, 72 h). The note with it: Ba/F3-Her2 Exon20 YVMA cells. The text has this: A compound's ability in selectively inhibiting Her2 exon 20 YVMA insertion mutations can be assessed using Ba/F3 cells, a murine pro-B cell line, which have been transduced with Her2 Exon20 YVMA insertions. An expression vector, pLVX-IRES puro (Clontech) coding for […] (A775_G776ins YVMA), was transfected into HEK293 cells by the Trans-Lentiviral ORF Packaging System (Thermo Scientific), to produce virus encoding EGFR exon 20 insertions. Ba/F3 (DSMZ) cells maintained in RPMI 1640 medium supplemented with 10% fetal bovine serum, 200 μM L-glutamine/200 μg/mL penicillin/200 μg/mL streptomycin (Life Technology) and 10 ng/mL IL-3 (R&D system), were infected by EGFR Exon20 virus and subsequently selected by puromycin (Life Technology) selection and IL-3 depletion. Ba/F3 cells expressing Her2 Exon20 YVMA insertions (named Ba/F3-Her2 Exon20 YVMA) can proliferate in the absence of IL-3. The anti-proliferative activity of compounds was determined as follows: BaF3-Her2 Exon20 YVMA cells seeded in 96 well plates (2500 cells/well) were treated with test compound (dissolved in DMSO) at a series of concentrations (4-fold dilution, top concentration: 10,000 nM). The plates were incubated for 72 h in a 37° C. incubator with 5% CO2, and the number of viable cells in each well were measured indirectly by CellTiter 96@ Aqueous One Solution Cell Proliferation Assay (Promega; this assay is a colorimetric method for determining the number of viable cells through measurement of their metabolic activity by detection of enzymatic conversion of tetrazolium salts into blue formazan derivatives). Reagent (20 μL) was added into each well, and the plates were returned to the incubator for 2 h. The absorbance in each well was then measured at 490 nm using an Envision plate reader (Perkin Elmer).

As a reminder, the IC50 is the point on the concentration scale where inhibition reaches its midpoint. A low value points to inhibition by little substance.

T1 sequence (P00533 with tags, fused parts or gaps INS769ASV): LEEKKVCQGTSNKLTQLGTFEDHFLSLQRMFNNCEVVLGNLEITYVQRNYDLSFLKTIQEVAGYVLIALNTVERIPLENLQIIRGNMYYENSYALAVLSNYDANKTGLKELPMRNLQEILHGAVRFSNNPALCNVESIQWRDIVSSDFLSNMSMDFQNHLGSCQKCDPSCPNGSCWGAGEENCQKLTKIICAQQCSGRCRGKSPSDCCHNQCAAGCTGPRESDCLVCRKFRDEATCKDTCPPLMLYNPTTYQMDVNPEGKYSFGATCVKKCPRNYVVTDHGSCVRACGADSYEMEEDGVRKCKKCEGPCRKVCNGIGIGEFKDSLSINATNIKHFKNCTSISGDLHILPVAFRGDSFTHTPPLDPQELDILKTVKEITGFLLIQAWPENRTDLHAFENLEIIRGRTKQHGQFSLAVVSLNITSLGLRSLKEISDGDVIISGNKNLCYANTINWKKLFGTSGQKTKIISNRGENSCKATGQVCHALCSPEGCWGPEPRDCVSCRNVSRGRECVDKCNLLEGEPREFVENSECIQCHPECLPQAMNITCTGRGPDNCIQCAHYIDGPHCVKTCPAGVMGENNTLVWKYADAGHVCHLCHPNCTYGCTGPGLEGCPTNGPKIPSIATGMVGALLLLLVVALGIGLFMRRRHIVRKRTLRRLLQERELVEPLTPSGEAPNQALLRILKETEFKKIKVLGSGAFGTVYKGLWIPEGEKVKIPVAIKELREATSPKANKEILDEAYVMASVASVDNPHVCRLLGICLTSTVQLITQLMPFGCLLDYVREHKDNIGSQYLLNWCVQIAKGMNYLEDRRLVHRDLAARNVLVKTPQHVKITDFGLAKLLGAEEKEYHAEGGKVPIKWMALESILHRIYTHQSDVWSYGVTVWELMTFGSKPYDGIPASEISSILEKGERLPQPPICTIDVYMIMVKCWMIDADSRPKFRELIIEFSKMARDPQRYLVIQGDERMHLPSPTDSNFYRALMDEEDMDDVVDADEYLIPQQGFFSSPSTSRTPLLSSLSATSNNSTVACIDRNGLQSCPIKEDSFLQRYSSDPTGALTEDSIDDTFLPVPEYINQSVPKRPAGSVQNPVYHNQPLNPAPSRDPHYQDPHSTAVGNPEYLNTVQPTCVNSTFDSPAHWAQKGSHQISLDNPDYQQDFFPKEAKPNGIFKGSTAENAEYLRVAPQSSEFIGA
T2 sequence (P00533 with tags, fused parts or gaps INS772GNP): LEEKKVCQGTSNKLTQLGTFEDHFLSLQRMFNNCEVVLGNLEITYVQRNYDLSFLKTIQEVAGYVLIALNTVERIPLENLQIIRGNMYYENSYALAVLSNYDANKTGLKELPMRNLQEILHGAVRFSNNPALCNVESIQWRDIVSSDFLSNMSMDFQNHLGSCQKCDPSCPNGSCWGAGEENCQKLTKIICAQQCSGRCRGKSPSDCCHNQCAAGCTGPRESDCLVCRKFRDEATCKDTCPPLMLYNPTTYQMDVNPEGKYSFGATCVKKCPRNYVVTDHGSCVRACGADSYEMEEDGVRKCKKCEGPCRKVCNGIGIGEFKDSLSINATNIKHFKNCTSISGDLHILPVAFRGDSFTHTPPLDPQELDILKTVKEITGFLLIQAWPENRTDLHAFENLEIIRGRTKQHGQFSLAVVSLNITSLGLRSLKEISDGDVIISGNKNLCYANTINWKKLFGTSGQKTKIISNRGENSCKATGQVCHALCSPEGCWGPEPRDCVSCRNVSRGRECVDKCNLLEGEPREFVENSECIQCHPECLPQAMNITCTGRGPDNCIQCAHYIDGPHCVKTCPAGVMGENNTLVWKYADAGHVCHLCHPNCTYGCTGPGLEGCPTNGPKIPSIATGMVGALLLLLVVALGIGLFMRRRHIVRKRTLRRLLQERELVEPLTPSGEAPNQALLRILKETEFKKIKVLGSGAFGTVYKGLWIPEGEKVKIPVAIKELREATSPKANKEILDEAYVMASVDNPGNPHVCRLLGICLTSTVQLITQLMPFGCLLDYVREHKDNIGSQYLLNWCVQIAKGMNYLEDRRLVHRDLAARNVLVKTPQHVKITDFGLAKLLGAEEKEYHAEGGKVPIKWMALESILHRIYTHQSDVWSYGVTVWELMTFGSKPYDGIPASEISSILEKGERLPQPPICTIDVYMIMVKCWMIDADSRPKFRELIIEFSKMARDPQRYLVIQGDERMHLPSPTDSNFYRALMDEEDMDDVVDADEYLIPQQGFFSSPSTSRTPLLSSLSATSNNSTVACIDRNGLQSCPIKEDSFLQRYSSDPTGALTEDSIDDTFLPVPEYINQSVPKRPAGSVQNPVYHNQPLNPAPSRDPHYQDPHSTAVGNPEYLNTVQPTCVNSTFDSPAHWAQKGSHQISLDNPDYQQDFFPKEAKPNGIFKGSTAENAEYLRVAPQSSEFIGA

In the case of `C=CC(=O)Nc1cc(Nc2ncc(CC)c(-c3cn4c5c(cccc35)CCC4)n2)c(OC)cc1N(C)CCN(C)C` [Example 2, N-(5-((4-(5,6-dihydro-4H-pyrrolo[3,2,1-ij]quinolin-1-yl)-5-ethylpyrimidin-2-yl)amino)-2-((2-(dimethylamino)ethyl)(methyl)amino)-4-methoxyphenyl)acrylamide], the IC50 in experiment [1] is under 100 nM; in experiment [2], under 100 nM; in experiment [4] it was 100 to 500 nM. The “EGFR exon 19 deletion and exon 20 T790M mutation IC50” value in experiment [3] is listed as “A (IC50 value for the indicated mutant below about 100 nM)”.

`C=CC(=O)Nc1cc(Nc2ncc(C#N)c(-c3cn4c5c(cccc35)OCC4)n2)c(OC)cc1N1CC[C@@H](N(C)C)C1` [Example 5, (R)-N-(5-((5-cyano-4-(2,3-dihydro-[1,4]oxazino[2,3,4-hi]indol-6-yl)pyrimidin-2-yl)amino)-2-(3-(dimethylamino)pyrrolidin-1-yl)-4-methoxyphenyl)acrylamide]: the IC50 in experiment [1] is under 100 nM; in experiment [2] it was under 100 nM; in experiment [4], 100 to 500 nM. The “EGFR exon 19 deletion and exon 20 T790M mutation IC50” value in experiment [3] was “A (IC50 value for the indicated mutant below about 100 nM)”.

For `C=CC(=O)Nc1cc(Nc2ncc(C#N)c(-c3cn4c5c(cccc35)OCC4)n2)c(OC)cc1N1CC(N(C)C)C1` [Example 6, N-(5-((5-cyano-4-(2,3-dihydro-[1,4]oxazino[2,3,4-hi]indol-6-yl)pyrimidin-2-yl)amino)-2-(3-(dimethylamino)azetidin-1-yl)-4-methoxyphenyl)acrylamide], the results for the IC50 in experiment [1], in experiment [2] and in experiment [4] were 100 to 500 nM, under 100 nM and 100 to 500 nM, respectively. Moreover, the “EGFR exon 19 deletion and exon 20 T790M mutation IC50” value in experiment [3] is given as “A (IC50 value for the indicated mutant below about 100 nM)”.

Consider `[2H]C([2H])([2H])N(CCN(C)c1cc(OC)c(Nc2ncc(Cl)c(-c3cn4c5c(cccc35)OCC4)n2)cc1NC(=O)C=C)C([2H])([2H])[2H]` [Example 7, N-(2-((2-(bis(methyl-d3)amino)ethyl)(methyl)amino)-5-((5-chloro-4-(2,3-dihydro-[1,4]oxazino[2,3,4-hi]indol-6-yl)pyrimidin-2-yl)amino)-4-methoxyphenyl)acrylamide], for which the IC50 in experiment [1], in experiment [2] and in experiment [4] was under 100 nM throughout. The “EGFR exon 19 deletion and exon 20 T790M mutation IC50” value in experiment [3] is “A (IC50 value for the indicated mutant below about 100 nM)”.

Regarding `C=CC(=O)Nc1cc(Nc2ncc(Cl)c(-c3cn4c5c(cccc35)OCC4)n2)c(OC)cc1N(C)CC1CCCN1C` (stereo not drawn) [Example 8, N-(5-((5-chloro-4-(2,3-dihydro-[1,4]oxazino[2,3,4-hi]indol-6-yl)pyrimidin-2-yl)amino)-4-methoxy-2-(methyl((1-methylpyrrolidin-2-yl)methyl)amino)phenyl)acrylamide], the IC50 in experiment [1] was under 100 nM; in experiment [2], under 100 nM; in experiment [4] it was 100 to 500 nM. The “EGFR exon 19 deletion and exon 20 T790M mutation IC50” value in experiment [3] is “A (IC50 value for the indicated mutant below about 100 nM)”.

Regarding `C=CC(=O)Nc1cc(Nc2ncc(Cl)c(-c3cn4c5c(cccc35)OCC4)n2)c(OC)cc1N(C)C1CCN(C)C1` (stereo not drawn) [Example 9, N-(5-((5-chloro-4-(2,3-dihydro-[1,4]oxazino[2,3,4-hi]indol-6-yl)pyrimidin-2-yl)amino)-4-methoxy-2-(methyl(1-methylpyrrolidin-3-yl)amino)phenyl)acrylamide], the half-inhibitory concentration (IC50) in experiment [1] is 100 to 500 nM; in experiment [2] it was under 100 nM; in experiment [4] it was 500 to 1000 nM. In experiment [3], the “EGFR exon 19 deletion and exon 20 T790M mutation IC50” value is listed as “A (IC50 value for the indicated mutant below about 100 nM)”.

As to `C=CC(=O)Nc1cc(Nc2ncc(C#N)c(-c3cn4c5c(cccc35)CCC4)n2)c(OC)cc1N1CC[C@@H](N(C)C)C1` [Example 15, (R)-N-(5-((5-cyano-4-(5,6-dihydro-4H-pyrrolo[3,2,1-ij]quinolin-1-yl)pyrimidin-2-yl)amino)-2-(3-(dimethylamino)pyrrolidin-1-yl)-4-methoxyphenyl)acrylamide], the IC50 in experiment [1] is under 100 nM; in experiment [2], under 100 nM; in experiment [4] it was 100 to 500 nM. In addition, the “EGFR exon 19 deletion and exon 20 T790M mutation IC50” value in experiment [3] is “A (IC50 value for the indicated mutant below about 100 nM)”.

Consider `C=CC(=O)Nc1cc(Nc2ncc(C#N)c(-c3cn4c5c(cccc35)CCC4)n2)c(OC)cc1N1CC[C@H](N(C)C)C1` [Example 16, (S)-N-(5-((5-cyano-4-(5,6-dihydro-4H-pyrrolo[3,2,1-ij]quinolin-1-yl)pyrimidin-2-yl)amino)-2-(3-(dimethylamino)pyrrolidin-1-yl)-4-methoxyphenyl)acrylamide], for which the figures for the IC50 in experiment [1], in experiment [2] and in experiment [4] were under 100 nM, under 100 nM and 100 to 500 nM, respectively. In addition, the “EGFR exon 19 deletion and exon 20 T790M mutation IC50” value in experiment [3] is reported as “A (IC50 value for the indicated mutant below about 100 nM)”.

On to `C=CC(=O)Nc1cc(Nc2ncc(F)c(-c3cn4c5c(cccc35)CCC4)n2)c(OC)cc1N(C)CCN(C)C` [Example 17, N-(5-((4-(5,6-dihydro-4H-pyrrolo[3,2,1-ij]quinolin-1-yl)-5-fluoropyrimidin-2-yl)amino)-2-((2-(dimethylamino)ethyl)(methyl)amino)-4-methoxyphenyl)acrylamide], for which the 50% inhibitory concentration (IC50) is 100 to 500 nM in experiment [1], under 100 nM in experiment [2] and 100 to 500 nM in experiment [4]. The “EGFR exon 19 deletion and exon 20 T790M mutation IC50” value in experiment [3] is given as “A (IC50 value for the indicated mutant below about 100 nM)”.

Consider `C=CC(=O)Nc1cc(Nc2ncc(Cl)c(-c3cn4c5c(cccc35)OCC4)n2)c(C)cc1N(C)CCN1CCCC1` [Example 79, N-(5-((5-chloro-4-(2,3-dihydro-[1,4]oxazino[2,3,4-hi]indol-6-yl)pyrimidin-2-yl)amino)-4-methyl-2-(methyl(2-(pyrrolidin-1-yl)ethyl)amino)phenyl)acrylamide], for which the IC50 in experiment [2] is under 100 nM; in experiment [4], 100 to 500 nM. The “EGFR exon 19 deletion and exon 20 T790M mutation IC50” value in experiment [3] is reported as “A (IC50 value for the indicated mutant below about 100 nM)”.
